The values that follow come from ChEMBL document CHEMBL4699425, “Active learning effectively identifies a minimal set of maximally informative and asymptotically performant cytotoxic structure-activity patterns in NCI-60 cell lines” (2020).

Calls of active or inactive are those of the source. The calls are words filed in the database; no cut-off is given here.

For the test, the system named is SK-MEL-2. As to the kind of experiment: Growth inhibition of human SK-MEL-2 cells. It counts as functional.

In the case of `COc1cc(C2c3cc4c(cc3OC(N3CCCC3)C2C)OCO4)cc(OC)c1OC` (stereo unspecified), the “growth inhibition (GI)” value was “Active”.

Consider `Cc1ccc(-c2cc3c4c(nc5ccccc53)C(=O)c3cccnc3-c4n2)cc1`, for which the GI50 reads like this: (read-out: GI50) 15 µM; (read-out: pGI50 (converted)) 15 µM.

For the compound `CC1C(c2ccccc2O)c2cc3c(cc2OC1N1CCCC1)OCO3` (stereo unspecified), the “growth inhibition (GI)” value is “inactive”.

As to `O=C1c2cccnc2-c2nc(-c3ccccn3)cc3c2c1nc1ccccc13`, the GI50 reads like this: (read-out: GI50) 0.874 µM; (read-out: pGI50 (converted)) 0.875 µM.
